In PubChem BioAssay AID1259408 (Genetic Toxicology Data Bank (GENE-TOX), 2018) one finds mutagenic call and call data, which are given here for 29 compounds.

In the series the test system is GENE-TOX genotoxicity assays, various organisms and cells. Nature of the series: GENE-TOX mutagenicity studies. Particulars: for call: Assay Type: In vivo carcinogenicity studies.
Setting [1] is: Species/Cell Type: Salmonella typhimurium (one or more of the five standard strains: TA98, TA100, TA1535, TA1537, and TA1538), Assay Type: Histidine reverse gene mutation, Ames assay, Assay Code: SALT, Evaluation Type: Evaluation A (Pre-1980).
Where [2] appears, read: Species/Cell Type: Nonhuman, Assay Type: Sister-chromatid exchange (SCE) in vitro, Assay Code: SC2-, Evaluation Type: Evaluation B (Post-1980).
Setting [3] is: Species/Cell Type: Salmonella typhimurium (one or more of the five standard strains: TA98, TA100, TA1535, TA1537, and TA1538), Assay Type: Histidine reverse gene mutation, Ames assay, Assay Code: SAL+*, Activation: With metabolic activation, Evaluation Type: Evaluation A (Pre-1980).
The mark [4] stands for this setting: Species/Cell Type: Drosophila melanogaster, Assay Type: Sex-linked recessive lethal gene mutation, Assay Code: SRLT, Evaluation Type: Evaluation A (Pre-1980).
Setting [5] is: Species/Cell Type: Nonhuman, Assay Code: CCG+, Evaluation Type: Evaluation A (Pre-1980).
The mark [6] stands for this setting: Species/Cell Type: Saccharomyces cerevisiae, Assay Type: Mitotic recombination or gene conversion, Assay Code: YEH-, Evaluation Type: Evaluation A (Pre-1980).
[7] abbreviates: Species/Cell Type: Rodents, Sex: Male, Assay Type: Dominant lethal test, Assay Code: DLT+, Evaluation Type: Evaluation A (Pre-1980).
The mark [8] stands for this setting: Species/Cell Type: Nonhuman, Assay Code: CCGT, Evaluation Type: Evaluation A (Pre-1980).
Where [9] appears, read: Species/Cell Type: Salmonella typhimurium (one or more of the five standard strains: TA98, TA100, TA1535, TA1537, and TA1538), Assay Type: Histidine reverse gene mutation, Ames assay, Assay Code: SAL+, Evaluation Type: Evaluation A (Pre-1980).
Setting [10] is: Species/Cell Type: Mouse, Sex: Male, Assay Type: Sperm morphology, Assay Code: SPI-, Evaluation Type: Evaluation A (Pre-1980).

SMILES strings stand for the structures. Calls of active or inactive are those of the source. How the calls were made is not given here.

Regarding `CCCCCCCCCCCCCCCC(=O)OC/C=C(C)/C=C/C=C(C)/C=C/C1=C(C)CCCC1(C)C`, the mutagenic call (Species/Cell Type: Human, Assay Type: Sister-chromatid exchange (SCE) in vitro, Assay Code: SC1+D, Dose Response: With dose response, Evaluation Type: Evaluation A (Pre-1980)) is “active; positive”.
For the compound `Oc1c(Cl)cc(Cl)c2cccnc12`, under setting [1], the mutagenic call is given as “no conclusion”.
As for `Cc1cc2ccccc2c2cc3ccccc3cc12`, the mutagenic call runs as follows: (Species/Cell Type: Nonhuman, Assay Type: Sister-chromatid exchange (SCE) in vitro, Assay Code: SC2+D, Dose Response: With dose response, Evaluation Type: Evaluation B (Post-1980)) “active; positive”; under setting [2], “inactive; negative”; under setting [3], “active; positive”.
As for `CC(C)OC(N)=O`, the mutagenic call (Species/Cell Type: Nonhuman, Assay Type: Sister-chromatid exchange (SCE) in vivo, Assay Code: SC3+D, Dose Response: With dose response, Evaluation Type: Evaluation B (Post-1980)) is “active; positive”.
In the case of `COCCc1ccc(OCC(O)CNC(C)C)cc1` (stereo unspecified), under “Species/Cell Type: Mammalian polychromatic erythrocytes, Assay Type: Micronucleus test, chromosome aberrations, Assay Code: MNTT, Evaluation Type: Evaluation B (Post-1980)”, the mutagenic call is “no conclusion”.
Turning to `COc1ccc2ccc(=O)oc2c1`, the mutagenic call (Species/Cell Type: Allium cepa, Assay Type: Chromosome aberrations, Assay Code: ALC+D, Dose Response: With dose response, Evaluation Type: Evaluation A (Pre-1980)) was “active; positive”.
Regarding `COP(=S)(OC)SCn1nnc2ccccc2c1=O`, the mutagenic call runs as follows: (Species/Cell Type: Bacillus subtilis (H17 vs M45), Assay Type: Rec-assay, spot test, DNA effects (bacterial DNA repair), Assay Code: REWT, Evaluation Type: Evaluation A (Pre-1980)) “no conclusion”; under setting [4], “no conclusion”; (Species/Cell Type: Escherichia coli WP2 UVRA, Assay Type: Tryptophan reverse gene mutation, Assay Code: WPU-*, Activation: With metabolic activation, Evaluation Type: Evaluation A (Pre-1980)) “inactive; negative”; (Species/Cell Type: Escherichia coli polA (W3119 vs P3478), Assay Type: Rec-assay, DNA effects (bacterial DNA repair), Assay Code: RE1T, Evaluation Type: Evaluation A (Pre-1980)) “no conclusion”; (Species/Cell Type: Human diploid fibroblasts, Assay Type: Unscheduled DNA synthesis (UDS) in vitro, DNA effects, Assay Code: UDH-, Evaluation Type: Evaluation A (Pre-1980)) “inactive; negative”; under setting [2], “inactive; negative”. The mutagenic call is “active; positive” (Species/Cell Type: Saccharomyces cerevisiae, Assay Type: Mitotic recombination or gene conversion, Assay Code: YEH+, Evaluation Type: Evaluation A (Pre-1980)) and “no conclusion” under setting [1].
Turning to `NCCNc1cccc2ccccc12`, the call (Species/Cell Type: Nonhuman, Assay Code: CCG-, Evaluation Type: Evaluation A (Pre-1980)) was “inactive; negative”.
As to `CC(C)(Oc1ccc(C2CCCc3ccccc32)cc1)C(=O)O` (stereo unspecified), under setting [5], the call is “active; positive”.
As for `OCSc1ncc[nH]1`, the mutagenic call (Species/Cell Type: Arabidopsis species, Assay Type: Gene mutation, Assay Code: ARM-, Evaluation Type: Evaluation A (Pre-1980)) is “inactive; negative”.
Regarding `O=C1NCCN1/N=C/c1ccc([N+](=O)[O-])o1`, the call under setting [5] was “active; positive”.
On to `[S]=[Mo]=[S]`, for which the mutagenic call (Species/Cell Type: Syrian hamster embryo (SA7/SHE) cells, Assay Type: Cell transformation, viral enhanced, Assay Code: CT7+, Evaluation Type: Evaluation A (Pre-1980)) is “active; positive”.
With `CC(=O)OC[C@]12C[C@H](OC(=O)CC(C)C)C(C)=C[C@H]1O[C@@H]1[C@H](O)[C@@H](OC(C)=O)[C@@]2(C)[C@]12CO2`, the mutagenic call is, setting by setting: (Species/Cell Type: Bacillus subtilis (H17 vs M45), Assay Type: Rec-assay, spot test, DNA effects (bacterial DNA repair), Assay Code: REW-, Evaluation Type: Evaluation A (Pre-1980)) “inactive; negative”; under setting [6], “inactive; negative”; under setting [1], “no conclusion”.
For the compound `C[C@@H](CC[C@H](C)OS(C)(=O)=O)OS(C)(=O)=O`, the mutagenic call under setting [7] is “active; positive”.
Regarding `C/C(=C/c1ccc(SC#N)cc1)[N+](=O)[O-]`, under “Species/Cell Type: Bacillus subtilis (H17 vs M45), Assay Type: Rec-assay, spot test, DNA effects (bacterial DNA repair), Assay Code: REW+, Evaluation Type: Evaluation A (Pre-1980)”, the mutagenic call was “active; positive”.
For the compound `Nc1ccc2nc[nH]c2c1`, the mutagenic call (Species/Cell Type: Aspergillus nidulans, Assay Type: Aneuploidy, chromosome aberrations, Assay Code: ASN-, Evaluation Type: Evaluation A (Pre-1980)) is “inactive; negative”.
Turning to `C=C(C)[C@H]1O[C@H]2CC[C@@]3(C)[C@@](O)(CC[C@H]4[C@@H]5OC(C)(C)[C@H]6C[C@@H]7C(=C)Cc8c(Cl)cc9[nH]c(c5c9c8[C@@]76O)[C@@]43C)[C@]23O[C@@H]3[C@H]1O`, the mutagenic call is, setting by setting: under setting [6], “inactive; negative”; under setting [1], “no conclusion”.
With `CCN(CC)c1ccc2c(-c3ccccc3C(=O)O)c3ccc(=[N+](CC)CC)cc-3oc2c1`, the mutagenic call by setting is: (Species/Cell Type: Bacillus subtilis (H17 vs M45T), Assay Type: Rec-assay, spot test, DNA effects (bacterial DNA repair), Assay Code: REXT, Evaluation Type: Evaluation A (Pre-1980)) “no conclusion”; under setting [4], “no conclusion”; (Species/Cell Type: Nonhuman, Assay Type: Sister-chromatid exchange (SCE) in vivo, Assay Code: SC3T, Evaluation Type: Evaluation B (Post-1980)) “no conclusion”; (Species/Cell Type: Saccharomyces cerevisiae, Assay Type: Mitotic recombination or gene conversion, Assay Code: YEC-, Evaluation Type: Evaluation A (Pre-1980)) “inactive; negative”; under setting [3], “active; positive”. Further, the call under setting [8] is reported as “no conclusion”.
For the compound `[2H]O[2H]`, for the setting “Species/Cell Type: Drosophila melanogaster, Sex: Male, Assay Type: Heritable translocation test, chromosome aberrations, Assay Code: DHTT, Evaluation Type: Evaluation A (Pre-1980)”, the mutagenic call is “no conclusion”.
`Cc1c2ccccc2cc2c1ccc1cccc(C)c12`: under setting [4], the mutagenic call is listed as “no conclusion”.
For the compound `Oc1ccc2c(c1)cc1ccc3cccc4ccc2c1c34`, the mutagenic call is, setting by setting: (Species/Cell Type: Chinese hamster lung (V79) cells, Assay Type: Forward gene mutation at the HPRT or ouabain locus, Assay Code: V79-*, Activation: With metabolic activation, Evaluation Type: Evaluation A (Pre-1980)) “inactive; negative”; under setting [1], “no conclusion”. Also, the call under setting [8] is reported as “no conclusion”.
As to `CN(C)CC/C=C1/c2ccccc2Sc2ccc(Cl)cc21`, for the setting “Species/Cell Type: Nonhuman, Assay Type: Sister-chromatid exchange (SCE) in vitro, Assay Code: SC2+D, Dose Response: With dose response, Evaluation Type: Evaluation A (Pre-1980)”, the mutagenic call was “active; positive”.
`O=[N+]([O-])c1ccc2ccc3c4ccccc4cc4ccc1c2c43`: under “Species/Cell Type: Chinese hamster ovary (CHO) cells, Assay Type: Forward gene mutation at the HPRT locus, Assay Code: CHO+*, Activation: With metabolic activation, Evaluation Type: Evaluation B (Post-1980)”, the mutagenic call is “active; positive”.
Turning to `CC[C@@H](CO)NC(=O)[C@@H]1C=C2c3cccc4c3c(cn4C)C[C@H]2N(C)C1`, under setting [7], the mutagenic call was “active; positive”.
In the case of `CC1CC2OC(=O)C(C)C2CC2(C)C(O)OC(O)CC12` (stereo unspecified), under setting [9], the mutagenic call was “active; positive”.
Take `[Be]=[O]`: the call under setting [5] was “active; positive”.
As for `Cc1c2ccccc2c(C)c2ccccc12`, the mutagenic call by setting is: (Species/Cell Type: Mammalian polychromatic erythrocytes, Assay Type: Micronucleus test, chromosome aberrations, Assay Code: MNTT, Evaluation Type: Evaluation A (Pre-1980)) “no conclusion”; under setting [10], “inactive; negative”; (Species/Cell Type: Nonhuman, Assay Type: Sister-chromatid exchange (SCE) in vitro, Assay Code: SC2+, Evaluation Type: Evaluation B (Post-1980)) “active; positive”; under setting [3], “active; positive”.
Take `OCCI`: the mutagenic call (Species/Cell Type: Escherichia coli polA (W3119 vs P3478), Assay Type: Rec-assay, DNA effects (bacterial DNA repair), Assay Code: RE1+, Evaluation Type: Evaluation A (Pre-1980)) is “active; positive”; the mutagenic call under setting [10] was “inactive; negative”; the mutagenic call under setting [9] was “active; positive”.
For `O=NN1CC=CCC1`, the mutagenic call is “no conclusion” (Species/Cell Type: Drosophila melanogaster, Assay Type: Aneuploidy, partial sex chromosome loss, chromosome aberrations, Assay Code: DAPT, Evaluation Type: Evaluation A (Pre-1980)); “no conclusion” (Species/Cell Type: Drosophila melanogaster, Assay Type: Aneuploidy, whole sex chromosome loss, chromosome aberrations, Assay Code: DACT, Evaluation Type: Evaluation A (Pre-1980)); “active; positive” (Species/Cell Type: Drosophila melanogaster, Assay Type: Sex-linked recessive lethal gene mutation, Assay Code: SRL+, Evaluation Type: Evaluation A (Pre-1980)); “active; positive” under setting [9].
